Broadly, the Ki is a measure of affinity in units of concentration, obtained from inhibition or displacement.

The assay deals with T1, Neutrophil elastase (Homo sapiens, UniProt P08246).
T1 sequence (P08246 whole entry): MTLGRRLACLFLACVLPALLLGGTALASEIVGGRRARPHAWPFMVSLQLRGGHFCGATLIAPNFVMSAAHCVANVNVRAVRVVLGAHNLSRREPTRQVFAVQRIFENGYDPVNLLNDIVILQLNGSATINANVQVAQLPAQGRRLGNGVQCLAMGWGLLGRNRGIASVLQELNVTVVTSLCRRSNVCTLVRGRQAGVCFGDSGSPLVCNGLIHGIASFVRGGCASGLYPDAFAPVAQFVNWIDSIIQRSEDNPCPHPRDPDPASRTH
Put plainly: ChEBML_64294. The source says:
Kinetic constant for human neutrophil elastase
In turn, `CC[C@@H](C)/C(NS(=O)(=O)c1ccc(C)cc1)=C(\O)[N]1[C@@H](CCCCNC(=O)C23CC4CC(CC(C4)C2)C3)C(=O)[N]2[C@H](C(=O)N[C@H](C(=O)O)C(C)C)C[S][Re]21=[O]` (stereo partly drawn) yielded a Ki of 36.7 µM.
`CC[C@@H](C)/C(NCc1ccccc1)=C(\O)[N]1[C@@H](CCCCNC(=O)C23CC4CC(CC(C4)C2)C3)C(=O)[N]2[C@H](C(=O)N[C@H](C(N)=O)C(C)C)C[S][Re]21=[O]` (stereo partly drawn): the affinity corresponds to a Ki of 194 µM. This Ki lies about 5.3-fold higher than the previous one.
The compound `CC[C@@H](C)/C(NS(=O)(=O)c1ccc(C)cc1)=C(\O)[N]1[C@@H](CCCCNC(=O)C23CC4CC(CC(C4)C2)C3)C(=O)[N]2[C@H](C(=O)N[C@H](C(N)=O)C(C)C)C[S][Re]21=[O]` (stereo partly drawn) had a Ki of 133 µM. The Ki values of the last two compounds are within 1.5-fold of each other.

Values taken from BindingDB's records for doi:10.1016/s0960-894x(99)00217-6 (Palatin Technologies, 1999).
